Counter-ions that a name gives are not always drawn.
Legend:
Assay in all cases: R-SAT selectivity profile of 26HCH16D
Assay type in all cases: cell-based
[1] = target: T1, 5HT2C (Homo sapiens, UniProt P28335); conditions: Inverse Agonist; 4 dose profiling
T1 construct: expressed in transfected cells; host or cells: NIH3T3, pSI vector
T1 sequence (P28335 33-458): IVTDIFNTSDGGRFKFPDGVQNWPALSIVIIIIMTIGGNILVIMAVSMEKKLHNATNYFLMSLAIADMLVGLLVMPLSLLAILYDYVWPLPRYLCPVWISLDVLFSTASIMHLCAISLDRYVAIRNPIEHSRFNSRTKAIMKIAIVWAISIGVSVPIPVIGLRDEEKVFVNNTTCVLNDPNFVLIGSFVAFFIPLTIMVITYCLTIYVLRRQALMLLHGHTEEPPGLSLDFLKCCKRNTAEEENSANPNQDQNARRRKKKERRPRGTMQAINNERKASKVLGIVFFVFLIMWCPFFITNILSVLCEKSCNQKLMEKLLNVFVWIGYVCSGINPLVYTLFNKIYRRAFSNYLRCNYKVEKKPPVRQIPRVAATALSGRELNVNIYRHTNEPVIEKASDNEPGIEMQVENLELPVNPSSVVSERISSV
Experimental: (§1) The functional receptor assay, Receptor Selection and Amplification Technology (R-SAT), was used (with minor modifications from that previously described U.S. Pat. No. 5,707,798) to screen compounds for efficacy at the 5-HT2A receptor. Briefly, NIH3T3 cells were grown in 96 well tissue culture plates to 70-80% confluence. Cells were transfected for 12-16 hours with plasmid DNAs using superfect (Qiagen Inc.) as per manufacture's protocols. R-SAT's were generally performed with 50 ng/well of receptor and 20 ng/well of Beta-galactosidase plasmid DNA. All receptor and G-protein constructs used were in the pSI mammalian expression vector (Promega Inc) as described in U.S. Pat. No. 5,707,798. The 5HT2A receptor gene was amplified by nested PCR from brain cDNA using the oligodeoxynucleotides based on the published sequence (see Saltzman et. al. Biochem. Biophys. Res. Comm. 181:1469-78 (1991)). Large-scale transfections, cells were transfected for 12-16 hours, then trypsinized and frozen in DMSO. Frozen cells were later thawed, plated at 10,000-40,000 cells per well of a 96 well plate that contained drug. With both methods, cells were then grown in a humidified atmosphere with 5% ambient CO2 for five days. Media was then removed from the plates and marker gene activity was measured by the addition of the beta-galactosidase substrate ONPG (in PBS with 5% NP-40). The resulting colorimetric reaction was measured in a spectrophotometric plate reader (Titertek Inc.) at […]. All data were analyzed using the computer program XLFit (IDBSm). Efficacy is the percent maximal repression compared to repression by a control compound (ritanserin in the case of 5HT2A). pIC50 is the negative of the log(IC50), where IC50 is the calculated concentration in Molar that produces 50% maximal repression.
(§2) R-SAT assays (as described in Example 42) were carried out with cells transfected with receptors (listed below) to determine the receptor selectivity profile for compound 26HCH16D. 5HT2A inverse agonist data (IC50 nM; % efficacy) were derived from detailed dose response curves (7 points in triplicate).

[2] = target: T2, H1 (Homo sapiens, UniProt P35367)
T2 construct: expressed in transfected cells; host or cells: NIH3T3, pSI vector
T2 sequence (P35367 whole entry): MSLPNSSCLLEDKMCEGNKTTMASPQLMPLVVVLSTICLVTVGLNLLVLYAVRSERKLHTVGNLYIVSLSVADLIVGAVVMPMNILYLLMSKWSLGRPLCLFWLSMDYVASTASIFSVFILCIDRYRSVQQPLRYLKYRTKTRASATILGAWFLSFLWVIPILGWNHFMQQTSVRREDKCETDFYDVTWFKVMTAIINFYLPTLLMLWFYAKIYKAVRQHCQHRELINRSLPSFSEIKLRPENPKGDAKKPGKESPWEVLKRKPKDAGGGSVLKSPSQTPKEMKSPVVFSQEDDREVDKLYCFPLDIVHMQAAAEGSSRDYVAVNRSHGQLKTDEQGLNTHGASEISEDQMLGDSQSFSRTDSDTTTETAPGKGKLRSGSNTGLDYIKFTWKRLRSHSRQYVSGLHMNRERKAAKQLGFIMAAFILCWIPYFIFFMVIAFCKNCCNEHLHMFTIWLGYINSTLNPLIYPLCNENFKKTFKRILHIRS
Experimental: as §1, §2

[3] = target: T3, D2 (Homo sapiens, UniProt P14416)
T3 construct: expressed in transfected cells; host or cells: NIH3T3, pSI vector
T3 sequence (P14416 whole entry): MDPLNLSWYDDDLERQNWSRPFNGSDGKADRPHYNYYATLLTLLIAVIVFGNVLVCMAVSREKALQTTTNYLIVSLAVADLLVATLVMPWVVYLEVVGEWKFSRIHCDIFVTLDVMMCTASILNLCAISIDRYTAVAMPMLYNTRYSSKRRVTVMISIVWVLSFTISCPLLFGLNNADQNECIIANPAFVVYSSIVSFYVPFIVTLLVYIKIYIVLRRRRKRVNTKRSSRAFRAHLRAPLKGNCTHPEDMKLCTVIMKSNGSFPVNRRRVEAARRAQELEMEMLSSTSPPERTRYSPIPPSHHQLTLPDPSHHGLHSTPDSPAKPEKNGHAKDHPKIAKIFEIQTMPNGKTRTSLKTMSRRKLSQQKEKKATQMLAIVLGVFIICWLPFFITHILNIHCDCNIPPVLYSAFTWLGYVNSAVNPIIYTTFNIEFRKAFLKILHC
Experimental: as §1, §2

[4] = target: T4, alpha1c/A (Homo sapiens, UniProt P35348)
T4 construct: expressed in transfected cells; host or cells: NIH3T3, pSI vector
T4 sequence (P35348 1-466): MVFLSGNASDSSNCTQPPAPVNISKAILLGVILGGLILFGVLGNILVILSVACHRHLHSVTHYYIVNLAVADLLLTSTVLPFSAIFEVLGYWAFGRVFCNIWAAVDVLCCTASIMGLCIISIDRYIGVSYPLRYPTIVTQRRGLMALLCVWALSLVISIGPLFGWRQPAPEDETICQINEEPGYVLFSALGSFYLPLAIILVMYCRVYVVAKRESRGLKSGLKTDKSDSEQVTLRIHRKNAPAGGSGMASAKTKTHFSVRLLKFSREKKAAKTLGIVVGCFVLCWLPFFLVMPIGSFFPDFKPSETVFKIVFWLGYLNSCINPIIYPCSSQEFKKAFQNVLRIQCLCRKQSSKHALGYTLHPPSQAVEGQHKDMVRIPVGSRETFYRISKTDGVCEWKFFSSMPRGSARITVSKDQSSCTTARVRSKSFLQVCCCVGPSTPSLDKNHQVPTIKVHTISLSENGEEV
Experimental: as §1, §2

[5] = target: T5, 5HT1A (Rattus norvegicus, UniProt P19327); conditions: Antagonist; 4 doses in duplicate (3, 30, 300, 3000 nM)
T5 construct: expressed in transfected cells; host or cells: NIH3T3, pSI vector
T5 sequence (P19327 1-422): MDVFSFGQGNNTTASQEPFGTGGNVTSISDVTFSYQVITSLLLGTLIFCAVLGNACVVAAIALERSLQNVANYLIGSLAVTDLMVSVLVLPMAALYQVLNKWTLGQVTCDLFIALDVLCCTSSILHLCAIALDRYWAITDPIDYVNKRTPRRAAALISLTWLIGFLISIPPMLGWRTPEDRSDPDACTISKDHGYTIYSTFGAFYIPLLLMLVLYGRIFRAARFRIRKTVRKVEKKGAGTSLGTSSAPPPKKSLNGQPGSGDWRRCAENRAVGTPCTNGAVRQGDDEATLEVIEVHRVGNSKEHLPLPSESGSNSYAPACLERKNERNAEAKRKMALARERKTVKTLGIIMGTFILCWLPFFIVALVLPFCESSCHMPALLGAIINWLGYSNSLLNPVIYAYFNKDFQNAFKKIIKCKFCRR
Experimental: as §1, §2

[6] = Agonist, 4 doses in duplicate (3, 30, 300, 3000 nM)

Cc1ccc(CN(C(=O)NCc2ccccc2)C2CCN(Cc3ccccc3)CC2)cc1 [Compound 26HCH16D, N-((4-Methylphenyl)methyl)-N-(1-(phenylmethyl)piperidin-4-yl)-N′-phenylmethylcarbamide hydrochloride]
initial concentration at which at least 30% efficacy observed [1]: 3000 nM
Efficacy [2, 6]: nr (nr=activity less than 30% at all doses tested (3, 30, 300, 3000 nM), therefore EC50/IC50 greater than 3000 nM))
initial concentration at which at least 30% efficacy observed ([2]; Antagonist, 4 dose profiling): 3000 nM
Efficacy [3, 6]: nr (nr=activity less than 30% at all doses tested (3, 30, 300, 3000 nM), therefore EC50/IC50 greater than 3000 nM))
initial concentration at which at least 30% efficacy observed ([3]; Antagonist, 4 dose profiling): 3000 nM
Efficacy [4, 6]: nr (nr=activity less than 30% at all doses tested (3, 30, 300, 3000 nM), therefore EC50/IC50 greater than 3000 nM))
initial concentration at which at least 30% efficacy observed ([4]; Antagonist, 4 dose profiling): 3000 nM
Efficacy [5]: nr (nr=activity less than 30% at all doses tested (3, 30, 300, 3000 nM), therefore EC50/IC50 greater than 3000 nM))

Reference: patent US9296694B2, “Azacyclic compounds” (ACADIA Pharmaceuticals Inc., priority 2000, dated 2016)
